What is called Km is the substrate concentration at which the rate is half of its maximum.

From publication PMC8822347, “Sustained Control of Pyruvate Carboxylase by the Essential Second Messenger Cyclic di-AMP in Bacillus subtilis” (mBio, 2022) come the findings set out here.

Data set [1] deals with T1, PC; pyruvate carboxylase (PycA) (Bacillus subtilis, UniProt Q9KWU4).
T1 construct: gene pyc; full length (1148 residues), C-terminal 6xHis (pET28a, pGP3458), from E. coli Rosetta(DE3), biotinylated with BirA; tetrameric
The data set can be described thus: malate dehydrogenase-coupled NADH oxidation, […] nm. The class given is biochemical.

For data set [2], the target named is DarB (Bacillus subtilis, UniProt O31698, L38F). To be noted: 20 °C; 10 µM DarB-L38F in cell, 100 µM c-di-AMP in syringe.
Data set [3] has as its target DarB (Bacillus subtilis, UniProt O31698). To be noted: 26 µM c-di-AMP, 2.6 µM DarB, 0.26 µM PC, 25 mM KHCO3, 2.5 mM pyruvate, 0.1 mM acetyl-CoA; c-di-AMP acts on DarB, not on PC.
Data set [4] addresses T2, PC-6×His (pyruvate carboxylase), biotinylated (B. subtilis, UniProt Q9KWU4 1-1148, biotin (naturally biotinylated or biotinylated in vitro with BirA)).
T2 construct: pyruvate carboxylase (PC), encoded by pycA, Bacillus subtilis 168; wild type; domains BC, CT, BCCP; also called His-PC; PycA; source: E. coli Rosetta(DE3) (pGP3458), purified (Ni-NTA, StrepTactin); biotinylated in vitro with purified BirA; not shown: 6×His, C-terminal, kept
T2 sequence (looked up): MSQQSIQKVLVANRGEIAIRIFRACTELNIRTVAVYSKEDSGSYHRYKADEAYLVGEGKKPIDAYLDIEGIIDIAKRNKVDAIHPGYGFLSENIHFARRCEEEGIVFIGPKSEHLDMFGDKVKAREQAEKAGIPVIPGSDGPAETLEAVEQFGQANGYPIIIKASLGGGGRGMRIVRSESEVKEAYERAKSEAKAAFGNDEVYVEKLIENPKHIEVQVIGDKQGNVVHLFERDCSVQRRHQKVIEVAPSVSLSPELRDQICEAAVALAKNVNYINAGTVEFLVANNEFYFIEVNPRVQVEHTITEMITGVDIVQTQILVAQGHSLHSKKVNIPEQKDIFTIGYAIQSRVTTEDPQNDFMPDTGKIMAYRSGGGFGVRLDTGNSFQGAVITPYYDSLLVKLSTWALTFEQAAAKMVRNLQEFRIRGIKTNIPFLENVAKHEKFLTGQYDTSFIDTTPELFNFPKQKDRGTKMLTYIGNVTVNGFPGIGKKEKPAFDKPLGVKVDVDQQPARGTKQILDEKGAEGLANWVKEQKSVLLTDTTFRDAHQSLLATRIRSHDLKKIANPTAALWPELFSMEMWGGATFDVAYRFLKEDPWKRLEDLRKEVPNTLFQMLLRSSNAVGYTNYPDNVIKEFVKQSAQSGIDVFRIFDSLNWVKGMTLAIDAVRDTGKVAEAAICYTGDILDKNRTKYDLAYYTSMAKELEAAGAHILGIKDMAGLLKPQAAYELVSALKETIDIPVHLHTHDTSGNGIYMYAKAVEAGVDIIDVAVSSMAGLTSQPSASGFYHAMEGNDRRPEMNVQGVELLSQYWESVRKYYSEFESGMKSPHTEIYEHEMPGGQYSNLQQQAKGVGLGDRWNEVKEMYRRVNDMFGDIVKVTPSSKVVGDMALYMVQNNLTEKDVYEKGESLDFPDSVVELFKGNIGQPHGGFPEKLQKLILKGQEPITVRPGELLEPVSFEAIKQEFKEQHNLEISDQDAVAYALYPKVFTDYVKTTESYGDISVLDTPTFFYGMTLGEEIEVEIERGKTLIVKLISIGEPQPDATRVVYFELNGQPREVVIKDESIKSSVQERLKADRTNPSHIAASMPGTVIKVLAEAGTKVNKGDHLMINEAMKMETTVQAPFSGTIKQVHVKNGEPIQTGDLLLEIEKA
The data set can be described thus: pull-down; 2 nmol biotinylated PC-6×His or PC^CT+BCCP-6×His on 250 μl StrepTactin matrix with 15 nmol DarB, DarB^L38F or YlxR, overnight at 4°C; washed with dialysis buffer (10 mM Tris pH 7.8, 150 mM KCl, 6 mM β-mercaptoethanol, 5% glycerol); eluted with 7 mM biotin; Western blot, silver stain, mass spectrometry; also with DarB preincubated with c-di-AMP (150 nmol; less DarB bound) and with acetyl-CoA (more DarB …). To be noted: both partners purified. A general note: A western blot detects proteins with antibodies after separation by electrophoresis.

Substrate in the data set “purified protein”: CC(=O)C(=O)O
The data set can be described thus: purified protein. In kind it is biochemical, Bacillus subtilis. To be noted: 0.1 mM acetyl-CoA, 2 mM ATP, 25 mM KHCO3, 5 mM MgCl2, 150 mM KCl, pH 7.8, 25 °C, no DarB.

DarB (Bacillus subtilis, UniProt O31698), sequence (O31698 whole entry): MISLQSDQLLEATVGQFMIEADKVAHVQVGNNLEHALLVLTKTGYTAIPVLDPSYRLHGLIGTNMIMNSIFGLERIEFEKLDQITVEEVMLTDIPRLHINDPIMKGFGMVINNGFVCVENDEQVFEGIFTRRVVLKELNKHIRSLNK

Consider `CC(=O)SCCNC(=O)CCNC(=O)[C@H](O)C(C)(C)COP(=O)(O)OP(=O)(O)OC[C@H]1O[C@@H](n2cnc3c(N)ncnc32)[C@H](O)[C@@H]1OP(=O)(O)O` [acetyl-CoA], for which the “malate dehydrogenase-coupled NADH oxidation, 340 nm” value in data set [1] (allosteric activator, 25 mM KHCO3, 2.5 mM pyruvate, pH 7.8, 25 °C, various acetyl-CoA concentrations) is “the activity of PC was strongly enhanced in the presence of acetyl-CoA”.
For `N[C@@H](CC(=O)O)C(=O)O` [aspartate], the “malate dehydrogenase-coupled NADH oxidation, 340 nm” value in data set [1] (allosteric inhibitor, 16 mM aspartate with 0.1 mM acetyl-CoA, 2.5 mM pyruvate, DarB or BSA present) is given as “DarB was no longer able to activate PC in the presence of aspartate”.
As to `Nc1ncnc2c1ncn2[C@@H]1O[C@@H]2COP(=O)(O)O[C@H]3[C@@H](O)[C@H](n4cnc5c(N)ncnc54)O[C@@H]3COP(=O)(O)O[C@H]2[C@H]1O` [c-di-AMP], on DarB [2], the KD result is “the mutant protein binds c-di-AMP with a similar affinity as the wild-type protein”. Also, the “activation by DarB inhibited to” value on DarB [3] is on record as 16%.

B1: DarB^L38F, purified, SUMO tag removed (natural protein, B. subtilis)
chain: MISLQSDQLLEATVGQFMIEADKVAHVQVGNNLEHALFVLTKTGYTAIPVLDPSYRLHGLIGTNMIMNSIFGLERIEFEKLDQITVEEVMLTDIPRLHINDPIMKGFGMVINNGFVCVENDEQVFEGIFTRRVVLKELNKHIRSLNK
notes: DarB, Bacillus subtilis 168, with Leu38 changed to Phe; also called DarB mutant L38F; the mutant protein; source: E. coli Rosetta(DE3) (pGP3481), purified (Ni-NTA; SUMO tag removed with SUMO protease); not shown: 6×His, N-terminal, cleaved; SUMO, N-terminal, cleaved
Turning to B1, the binding result in data set [4] was “binds”.

B2: PC; pyruvate carboxylase (PycA) (Bacillus subtilis subsp. subtilis str. 168) (protein)
chain: MSQQSIQKVLVANRGEIAIRIFRACTELNIRTVAVYSKEDSGSYHRYKADEAYLVGEGKKPIDAYLDIEGIIDIAKRNKVDAIHPGYGFLSENIHFARRCEEEGIVFIGPKSEHLDMFGDKVKAREQAEKAGIPVIPGSDGPAETLEAVEQFGQANGYPIIIKASLGGGGRGMRIVRSESEVKEAYERAKSEAKAAFGNDEVYVEKLIENPKHIEVQVIGDKQGNVVHLFERDCSVQRRHQKVIEVAPSVSLSPELRDQICEAAVALAKNVNYINAGTVEFLVANNEFYFIEVNPRVQVEHTITEMITGVDIVQTQILVAQGHSLHSKKVNIPEQKDIFTIGYAIQSRVTTEDPQNDFMPDTGKIMAYRSGGGFGVRLDTGNSFQGAVITPYYDSLLVKLSTWALTFEQAAAKMVRNLQEFRIRGIKTNIPFLENVAKHEKFLTGQYDTSFIDTTPELFNFPKQKDRGTKMLTYIGNVTVNGFPGIGKKEKPAFDKPLGVKVDVDQQPARGTKQILDEKGAEGLANWVKEQKSVLLTDTTFRDAHQSLLATRIRSHDLKKIANPTAALWPELFSMEMWGGATFDVAYRFLKEDPWKRLEDLRKEVPNTLFQMLLRSSNAVGYTNYPDNVIKEFVKQSAQSGIDVFRIFDSLNWVKGMTLAIDAVRDTGKVAEAAICYTGDILDKNRTKYDLAYYTSMAKELEAAGAHILGIKDMAGLLKPQAAYELVSALKETIDIPVHLHTHDTSGNGIYMYAKAVEAGVDIIDVAVSSMAGLTSQPSASGFYHAMEGNDRRPEMNVQGVELLSQYWESVRKYYSEFESGMKSPHTEIYEHEMPGGQYSNLQQQAKGVGLGDRWNEVKEMYRRVNDMFGDIVKVTPSSKVVGDMALYMVQNNLTEKDVYEKGESLDFPDSVVELFKGNIGQPHGGFPEKLQKLILKGQEPITVRPGELLEPVSFEAIKQEFKEQHNLEISDQDAVAYALYPKVFTDYVKTTESYGDISVLDTPTFFYGMTLGEEIEVEIERGKTLIVKLISIGEPQPDATRVVYFELNGQPREVVIKDESIKSSVQERLKADRTNPSHIAASMPGTVIKVLAEAGTKVNKGDHLMINEAMKMETTVQAPFSGTIKQVHVKNGEPIQTGDLLLEIEKA
notes: full length (1148 residues), C-terminal 6xHis (pET28a, pGP3458), from E. coli Rosetta(DE3), biotinylated with BirA; tetrameric
For B2, in the data set “purified protein”, the Km worked out at 230 µM.
